Source: patent US20240216357A1 (SICHUAN HUIYU PHARMACEUTICAL CO., LTD., priority 2021, published 2024)
Structures can show the parent of a compound that is named as a salt.

Legend:
[1] = system: NCI-H1417 cells; test: In vitro cell proliferation detection (CellTiter-Glo, 7 days); type: cell-based; conditions: Homo sapiens, 168 h; NCI-H1417 cells, 7 days, CellTiter-Glo; read-out: NCI-H1417 proliferation inhibition IC50
[2] = molecular target: LSD1 (Homo sapiens (Human), UniProt O60341); test: LSD1 enzyme activity detection (HTRF); type: biochemical; conditions: HTRF, H3K4me1 substrate; read-out: Inhibition of enzymatic activity of LSD1 IC50

In the case of `Cc1ccc(-c2c(-c3ccc(C#N)c(F)c3)nc(N3C4CCC3CC(N)C4)n3ccnc23)cc1O` (stereo not shown) [Example 156, 4-(5-(3-amino-8-azabicyclo[3.2.1]octane-8-yl)-8-(3-hydroxy-4-methylphenyl)imidazolo[1,2-c]pyrimidin-7-yl)-2-fluorobenzo nitrile hydrochloride], the IC50 [1] is reported as 0.447 nM and the IC50 [2] is reported as 0.2 ± 0.06 nM.

Molecule `N#Cc1ccc(-c2nc(N3C4CCC3CC(N)C4)n3ccnc3c2-c2ccc(F)c(O)c2)cc1F` (stereo not shown) [Example 157, 4-(5-(3-amino-8-azabicyclo [3.2.1]octane-8-yl)-8-(4-fluoro-3-hydroxyphenyl)imidazolo [1,2-c]pyrimidin-7-yl)-2-fluorobenzonitrile hydrochloride] has an IC50 [1] of 2.05 nM and an IC50 [2] of 0.3 ± 0.3 nM.

`N#Cc1ccc(-c2nc(N3C4CCC3CC(N)C4)n3ccnc3c2-c2ccc(Cl)c(O)c2)cc1F` (stereo not shown) [Example 158, 4-(5-(3-amino-8-azabicyclo[3.2.1]octane-8-yl)-8-(4-chloro-3-hydroxyphenyl)imidazolo[1,2-c]pyrimidin-7-yl)-2-fluorobenzonitrile hydrochloride] gave an IC50 [1] of 0.763 nM and an IC50 [2] of 0.2 ± 0.2 nM.

With `Cc1ccc(-c2c(-c3ccc(C#N)c(F)c3)nc(N3CC4CCC(C3)C4N)n3ccnc23)cc1O` (stereo not shown) [Example 159, 4-(5-(8-amino-3-azabicyclo[3. 2.1]octane-3-yl)-8-(3-hydroxy-4-methylphenyl)imidazolo[1,2-c]pyrimidin-7-yl)-2-fluorobenzonitrile] the IC50 [1] was 5.82 nM and the IC50 [2] was 2.8 ± 1 nM.

For `Cc1ccc(-c2c(-c3ccc(C#N)c(F)c3)nc(N3CC4CC3CC4N)n3ccnc23)cc1O` (stereo not shown) [Example 160, 4-(5-(5-amino-2-azadicyclo[2. 2.1]heptan-2-yl)-8-(3-hydroxy-4-methylphenyl)imidazolo[1,2-c]pyrimidin-7-yl)-2-fluorobenzonitrile hydrochloride], the IC50 [1] was 0.29 nM and the IC50 [2] was 1.2 ± 0.2 nM.

`COc1ccc(-c2c(-c3ccc(C#N)c(F)c3)nc(N3CC4CCC(C3)C4N)n3ccnc23)cc1O` (stereo not shown) [Example 161, 4-(5-(8-amino-3-azabicyclo[3. 2.1]octane-3-yl)-8-(3-hydroxy-4-methoxyphenyl)imidazolo[1,2-c]pyrimidin-7-yl)-2-fluorobenzonitrile hydrochloride] gave an IC50 [1] of 8.37 nM and an IC50 [2] of 3.9 ± 0.2 nM.

Molecule `COc1ccc(-c2c(-c3ccc(C#N)c(F)c3)nc(N3CC4CCC(C3)C4N)n3ccnc23)cc1F` (stereo not shown) [Example 162, 4-(5-(8-amino-3-azabicyclo [3.2.1]octyl-3-yl)-8-(3-fluoro-4-methoxyphenyl)imidazolo[1,2-c]pyrimidin-7-yl)-2-fluorobenzonitrile hydrochloride] has an IC50 [1] of 11.7 nM and an IC50 [2] of 59.9 nM.

Work on `COc1ccc(-c2c(-c3ccc(C#N)c(F)c3)nc(N3CC4CC(C3)C4N)n3ccnc23)cc1O` (stereo not shown) [Example 163, 4-(5-(6-amino-3-azabicyclo[3.1.1]heptan-3-yl)-8-(3-hydroxy-4-methoxyphenyl)imidazolo[1,2-c]pyrimidin-7-yl)-2-fluorobenzonitrile hydrochloride] yielded an IC50 [1] of 9.11 nM and an IC50 [2] of 5.6 ± 1.6 nM.

`Cc1ccc(-c2c(-c3ccc(C#N)c(F)c3)nc(N3CC4CC(C3)C4N)n3ccnc23)cc1O` (stereo not shown) [Example 165, 4-(5-(6-amino-3-azabicyclo [3.1.1]heptane-3-yl)-8-(3-hydroxy-4-methylphenyl)imidazolo[1,2-c]pyrimidin-7-yl)-2-fluorobenzonitrile] gave an IC50 [1] of 4.68 nM and an IC50 [2] of 3.4 ± 1.5 nM.

With `COc1ccc(-c2c(-c3ccc(C#N)c(F)c3)nc(N3CC4CCC3CC4N)n3ccnc23)cc1O` (stereo not shown) [Example 166, 4-(5-(5-amino-2-azabicyclo [2.2.2]octane-2-yl)-8-(3-hydroxy-4-methoxyphenyl)imidazolo[1,2-c]pyrimidin-7-yl)-2-fluorobenzonitrile hydrochloride] the IC50 [1] was 2.39 nM and the IC50 [2] was 1 ± 0.5 nM.

In the case of `COc1ccc(-c2c(-c3ccc(C#N)c(F)c3)nc(N3CC4CC(C3)C4N)n3ccnc23)cc1F` (stereo not shown) [Example 167, 4-(5-(6-amino-3-azabicyclo [3.1.1]heptane-3-yl)-8-(3-fluoro-4-methoxyphenyl)imidazolo[1,2-c]pyrimidin-7-yl)-2-fluorobenzonitrile hydrochloride], the IC50 [1] is reported as 155 nM and the IC50 [2] is reported as 78.4 nM.

`Cc1ccc(-c2c(-c3ccc(C#N)c(F)c3)nc(N3CC4CCC3CC4N)n3ccnc23)cc1O` (stereo not shown) [Example 168, 4-(5-(5-amino-2-azabicyclo [2.2.2]octane-2-yl)-8-(3-hydroxy-4-methylphenyl)imidazolo[1,2-c]pyrimidin-7-yl)-2-fluorobenzo nitrile] was tested, and the IC50 [1] was 1.24 nM and the IC50 [2] was 0.5 ± 0.1 nM.

In the case of `COc1ccc(-c2c(-c3ccc(C#N)c(F)c3)nc(N3CC4CCC3CC4N)n3ccnc23)cc1F` (stereo not shown) [Example 170, 4-(5-(5-amino-2-azabicyclo[2.2.2]octane-2-yl)-8-(3-fluoro-4-methoxyphenyl)imidazolo[1,2-c]pyrimidin-7-yl)-2-fluorobenzonitrile hydrochloride], the IC50 [1] is reported as 18.3 nM and the IC50 [2] is reported as 13.2 nM.

In the case of `N#Cc1ccc(-c2nc(N3C4CCC3CC(N)C4)n3ccnc3c2-c2cc3c(cc2F)CCN3)cc1F` (stereo not shown) [Example 171], the IC50 [1] is reported as 6 nM and the IC50 [2] is reported as 1.9 ± 1.5 nM.

Work on `N#Cc1ccc(-c2nc(N3C4CCC3CC(N)C4)n3ccnc3c2-c2cc3nc[nH]c3cc2F)cc1F` (stereo not shown) [Example 172, 4-(5-(3-amino-8-azabicyclo[3.2.1]octane-8-yl)-8-(6-fluoro-1H-benzo[d]imidazole-5-yl)imidazolo [1,2-c]pyrimidin-7-yl)-2-fluorobenzonitrile] yielded an IC50 [1] of 149 nM and an IC50 [2] of 5 ± 4.1 nM.

Work on `N#Cc1ccc(-c2nc(N3C4CCC3CC(N)C4)n3ccnc3c2-c2cc3[nH]ncc3cc2F)cc1F` (stereo not shown) [Example 173, 4-(5-(3-amino-8-azabicyclo[3.2.1]octane-8-yl)-8-(5-fluoro-1H-indazole-6-yl)imidazolo[1,2-c]pyrimidin-7-yl)-2-fluorobenzonitrile hydrochloride] yielded an IC50 [1] of 8.15 nM and an IC50 [2] of 0.8 ± 0.2 nM.

`Cn1ccc2cc(F)c(-c3c(-c4ccc(C#N)c(F)c4)nc(N4C5CCC4CC(N)C5)n4ccnc34)cc21` (stereo not shown) [Example 174, 4-(5-(3-amino-8-azabicyclo[3.2.1]octane-8-yl)-8-(5-fluoro-1-methyl-1H-indole-6-yl)imidazolo [1,2-c]pyrimidin-7-yl)-2-fluoro benzonitrile] showed an IC50 [1] of 14.4 nM and an IC50 [2] of 13.2 nM.

`COc1ccc(-c2c(-c3ccc(C#N)nc3)nc(N3C4CCC3CC(N)C4)n3ccnc23)cc1F` (stereo not shown) [Example 176, 5-(5-(3-amino-8-azabicyclo[3.2.1]octane-8-yl)-8-(3-fluoro-4-methoxyphenyl)imidazolo[1,2-c]pyrimidin-7-yl) picolinonitrile hydrochloride] gave an IC50 [1] of 21.6 nM and an IC50 [2] of 16.8 nM.

Molecule `COc1ccc(-c2c(-c3ccc(C#N)cc3)nc(N3C4CCC3CC(N)C4)n3ccnc23)cc1F` (stereo not shown) [Example 178, 4-(5-(3-amino-8-azabicyclo [3.2.1]octane-8-yl)-8-(3-fluoro-4-methoxyphenyl)imidazolo[1,2-c]pyrimidin-7-yl) benzonitrile hydrochloride] has an IC50 [1] of 6.24 nM and an IC50 [2] of 3.8 ± 2.2 nM.

Work on `COc1ccc(-c2c(-c3ccc(C#N)c(F)c3F)nc(N3C4CCC3CC(N)C4)n3ccnc23)cc1F` (stereo not shown) [Example 183, 4-(5-(3-amino-8-azabicyclo[3.2.1]octane-8-yl)-8-(3-fluoro-4-methoxyphenyl)imidazolo[1,2-c]pyrimidin-7-yl)-2,3-difluorobe nzonitrile hydrochloride] yielded an IC50 [1] of 6.28 nM and an IC50 [2] of 3.6 ± 0.6 nM.
